Measured values as given in PMC10067855, “Sialidases and fucosidases of Akkermansia muciniphila are crucial for growth on mucin and nutrient sharing with mucus-associated gut bacteria” (Nature Communications, 2023).

Experiments:
Assay in all cases: inhibition of pNPFuc hydrolysis, A405
Format in all cases: biochemical
[1] = molecular target: T1, AmGH29A (Akkermansia muciniphila, UniProt B2UL68)
T1 construct: gene Amuc_0010; mature peptide lacking the signal peptide
T1 sequence (B2UL68 20-538): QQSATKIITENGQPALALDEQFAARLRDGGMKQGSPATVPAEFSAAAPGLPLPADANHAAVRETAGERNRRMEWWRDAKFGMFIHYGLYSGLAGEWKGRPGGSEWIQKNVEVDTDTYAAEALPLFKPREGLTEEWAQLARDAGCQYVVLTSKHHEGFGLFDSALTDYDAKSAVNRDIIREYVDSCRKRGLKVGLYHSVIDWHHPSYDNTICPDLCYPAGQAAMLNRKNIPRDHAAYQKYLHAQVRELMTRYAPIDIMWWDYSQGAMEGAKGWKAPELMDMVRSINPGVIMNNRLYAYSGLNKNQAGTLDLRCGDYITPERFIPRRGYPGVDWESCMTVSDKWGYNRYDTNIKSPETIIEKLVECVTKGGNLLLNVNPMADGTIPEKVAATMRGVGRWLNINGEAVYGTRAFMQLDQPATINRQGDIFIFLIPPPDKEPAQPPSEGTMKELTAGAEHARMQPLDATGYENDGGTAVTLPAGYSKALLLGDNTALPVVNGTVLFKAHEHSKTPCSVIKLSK

[2] = molecular target: T2, AmGH29D (Akkermansia muciniphila, UniProt B2UQE4)
T2 construct: gene Amuc_0846; mature peptide lacking the signal peptide
T2 sequence (B2UQE4 25-704): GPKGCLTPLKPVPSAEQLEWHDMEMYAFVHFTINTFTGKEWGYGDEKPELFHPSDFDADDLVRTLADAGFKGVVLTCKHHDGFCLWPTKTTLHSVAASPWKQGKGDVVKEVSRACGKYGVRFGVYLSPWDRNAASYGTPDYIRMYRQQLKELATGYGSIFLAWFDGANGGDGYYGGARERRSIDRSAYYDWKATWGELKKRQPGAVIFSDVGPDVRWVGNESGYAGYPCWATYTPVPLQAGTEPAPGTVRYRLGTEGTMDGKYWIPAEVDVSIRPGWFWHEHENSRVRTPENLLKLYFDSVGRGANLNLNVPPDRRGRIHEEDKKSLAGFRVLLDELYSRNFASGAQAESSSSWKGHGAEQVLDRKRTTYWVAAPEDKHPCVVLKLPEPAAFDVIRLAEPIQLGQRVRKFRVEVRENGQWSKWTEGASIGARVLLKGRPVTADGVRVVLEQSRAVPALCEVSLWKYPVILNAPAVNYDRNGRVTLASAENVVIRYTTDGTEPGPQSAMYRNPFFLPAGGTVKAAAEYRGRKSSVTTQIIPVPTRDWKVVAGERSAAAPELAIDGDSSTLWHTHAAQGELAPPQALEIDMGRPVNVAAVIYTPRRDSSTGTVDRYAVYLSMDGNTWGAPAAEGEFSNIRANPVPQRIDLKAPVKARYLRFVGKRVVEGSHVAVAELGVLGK

[3] = molecular target: T3, AmGH95A (Akkermansia muciniphila, UniProt B2UM81)
T3 construct: gene Amuc_0186; mature peptide lacking the signal peptide
T3 sequence (B2UM81 25-788): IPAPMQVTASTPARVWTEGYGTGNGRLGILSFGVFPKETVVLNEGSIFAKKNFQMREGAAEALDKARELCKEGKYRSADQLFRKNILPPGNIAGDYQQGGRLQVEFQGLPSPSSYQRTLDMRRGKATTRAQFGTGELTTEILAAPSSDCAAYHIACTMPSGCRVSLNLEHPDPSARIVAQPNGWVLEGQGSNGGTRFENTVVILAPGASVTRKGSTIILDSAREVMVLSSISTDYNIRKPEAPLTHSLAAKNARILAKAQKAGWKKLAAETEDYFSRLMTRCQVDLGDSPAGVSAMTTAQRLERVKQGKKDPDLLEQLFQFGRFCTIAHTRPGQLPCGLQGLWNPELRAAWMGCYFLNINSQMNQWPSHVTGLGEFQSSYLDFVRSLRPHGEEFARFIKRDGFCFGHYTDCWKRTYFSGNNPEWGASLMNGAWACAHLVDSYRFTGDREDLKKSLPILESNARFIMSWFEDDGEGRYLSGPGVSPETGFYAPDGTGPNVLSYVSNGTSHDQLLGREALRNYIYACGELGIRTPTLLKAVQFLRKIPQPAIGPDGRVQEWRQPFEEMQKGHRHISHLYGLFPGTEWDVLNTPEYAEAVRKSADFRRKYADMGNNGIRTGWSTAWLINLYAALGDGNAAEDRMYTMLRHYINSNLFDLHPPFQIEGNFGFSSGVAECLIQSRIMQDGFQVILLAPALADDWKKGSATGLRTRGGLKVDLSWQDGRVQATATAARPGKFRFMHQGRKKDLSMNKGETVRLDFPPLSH

[4] = molecular target: T4, AmGH29C (Akkermansia muciniphila, UniProt B2UNB9)
T4 construct: gene Amuc_0392; mature peptide lacking the signal peptide
T4 sequence (B2UNB9 41-709): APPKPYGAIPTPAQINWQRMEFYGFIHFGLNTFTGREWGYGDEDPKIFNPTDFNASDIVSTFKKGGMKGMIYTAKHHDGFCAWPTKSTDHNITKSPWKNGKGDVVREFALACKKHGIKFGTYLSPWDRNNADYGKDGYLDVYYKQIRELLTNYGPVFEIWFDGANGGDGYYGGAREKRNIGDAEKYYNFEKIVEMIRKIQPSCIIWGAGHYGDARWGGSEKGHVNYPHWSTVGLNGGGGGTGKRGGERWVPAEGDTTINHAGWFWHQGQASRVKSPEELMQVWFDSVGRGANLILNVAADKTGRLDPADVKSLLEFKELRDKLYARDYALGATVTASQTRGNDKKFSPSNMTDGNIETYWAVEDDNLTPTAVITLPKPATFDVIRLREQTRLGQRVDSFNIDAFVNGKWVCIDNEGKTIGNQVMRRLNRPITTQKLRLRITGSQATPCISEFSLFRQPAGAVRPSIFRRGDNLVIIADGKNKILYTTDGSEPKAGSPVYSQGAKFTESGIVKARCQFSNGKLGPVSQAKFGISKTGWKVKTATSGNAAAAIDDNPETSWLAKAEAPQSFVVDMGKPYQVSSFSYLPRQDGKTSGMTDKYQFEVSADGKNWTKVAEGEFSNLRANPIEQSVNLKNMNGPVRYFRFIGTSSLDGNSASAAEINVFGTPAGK

- IC50 [1]: < 54 µM
- IC50 [2]: < 54 µM
- IC50 [3]: < 54 µM
- IC50 [4]: < 54 µM
Structure (SMILES): C[C@@H]1NC[C@@H](O)[C@H](O)[C@@H]1O [DFJ, 1-Deoxyfuconojirimycin]
